# From patent US20080261994A1, “CYCLOPROPANE COMPOUNDS AND PHARMACEUTICAL USE THEREOF” (Japan Tobacco Inc., priority 2003, published 2008)
# What was measured:
# Format in all cases: biochemical
# [1] = molecular target: T1, MMP-1 (Homo sapiens, UniProt P03956); experiment: MMP-1 inhibitory action (Type I collagen Activity Measurement kit, FITC-labeled collagen type I); conditions: Experimental Example 2; read-out: IC50 MMP1
# T1 sequence (P03956 100-469): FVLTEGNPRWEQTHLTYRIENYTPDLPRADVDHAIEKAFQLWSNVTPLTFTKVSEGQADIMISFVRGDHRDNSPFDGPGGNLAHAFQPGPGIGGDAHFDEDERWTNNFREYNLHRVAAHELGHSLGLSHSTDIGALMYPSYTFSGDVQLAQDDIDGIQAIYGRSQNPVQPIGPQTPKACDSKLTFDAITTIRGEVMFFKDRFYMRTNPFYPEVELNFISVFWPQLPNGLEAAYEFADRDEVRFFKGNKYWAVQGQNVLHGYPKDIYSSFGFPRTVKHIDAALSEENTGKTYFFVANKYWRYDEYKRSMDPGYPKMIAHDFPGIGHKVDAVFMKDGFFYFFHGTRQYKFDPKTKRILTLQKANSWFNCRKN
# [2] = molecular target: T2, aggrecanase-1 (Homo sapiens, UniProt O75173); experiment: Aggrecanase-1 inhibitory action (Particle Assay, GAG release from aggrecan-containing polyacrylamide particles); conditions: Experimental Example 1; read-out: IC50 AG1
# T2 sequence (O75173 213-837): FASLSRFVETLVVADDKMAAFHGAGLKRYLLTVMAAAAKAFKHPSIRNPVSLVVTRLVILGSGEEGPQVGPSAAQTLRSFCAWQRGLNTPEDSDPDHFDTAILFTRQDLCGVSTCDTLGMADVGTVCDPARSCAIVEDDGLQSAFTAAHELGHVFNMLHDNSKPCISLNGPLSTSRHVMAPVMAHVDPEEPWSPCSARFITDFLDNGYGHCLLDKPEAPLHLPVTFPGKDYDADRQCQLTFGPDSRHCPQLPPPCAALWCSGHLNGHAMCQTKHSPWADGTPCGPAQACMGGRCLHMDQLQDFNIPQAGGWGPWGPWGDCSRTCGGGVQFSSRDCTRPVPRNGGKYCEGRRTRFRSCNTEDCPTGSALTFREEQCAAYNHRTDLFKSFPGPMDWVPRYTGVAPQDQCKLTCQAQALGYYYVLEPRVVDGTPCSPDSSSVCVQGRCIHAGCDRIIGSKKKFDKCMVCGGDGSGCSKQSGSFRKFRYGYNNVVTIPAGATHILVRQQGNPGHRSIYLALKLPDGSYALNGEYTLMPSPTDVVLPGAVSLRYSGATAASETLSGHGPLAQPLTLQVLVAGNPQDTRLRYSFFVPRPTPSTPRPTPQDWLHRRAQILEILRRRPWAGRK
# Outline: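 Readout was dimethylmethylene blue absorbance (595 nm) of glycosaminoglycan liberated into supernatant, calibrated with whale chondroitin sulfate. Substrate was aggrecan in polyacrylamide particles, digested 15 h at 37° C in Tris-HCl; TC50 (μM) derived from inhibition relative to no-enzyme and no-inhibitor controls.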
# [3] = molecular target: T3, Recombinant Human MMP-13 (Homo sapiens, UniProt P45452); experiment: MMP-13 inhibitory activity (MMP-13 specific fluorescent substrate with quencher); conditions: Experimental Example 3; read-out: IC50 MMP13
# T3 construct: purchased R&D systems 511-MM
# Outline: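 IC50 (μM) derived from % inhibition, normalised to wells without enzyme and without inhibitor, fluorescence read at 325/405 nm. Enzyme and compound preceded addition of the quenched 7-MCA…DPA substrate; Tris-HCl buffer, 25 °C for 1 h, acetic-acid stop.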
IC50 [1] [nM],IC50 [2] [nM],IC50 [3] [nM],Structure (SMILES)
≥ 10000,≥ 1000,≥ 1000,Cc1nc2cc(N3CCN(S(=O)(=O)N[C@@]4(C(=O)O)C(C)[C@@H]4c4ccccc4)CC3)ccc2s1 (stereo partly drawn) [Example 2-483]
≥ 10000,≥ 1000,< 1000,Cc1cnc(N2CCN(S(=O)(=O)N[C@@]3(C(=O)O)C(C)[C@@H]3c3ccccc3)CC2)s1 (stereo partly drawn) [Example 2-484]
≥ 10000,< 1000,≥ 1000,C[C@]1(c2ccccc2)C[C@@]1(NS(=O)(=O)c1ccc(-c2ccc3c(c2)OCCO3)s1)C(=O)O [Example 2-485]
< 1000,< 1000,< 100,O=C(NO)C1(NS(=O)(=O)c2ccc(-c3cc(C(F)(F)F)on3)s2)C2CCc3ccccc3C21 (stereo not drawn) [Example 2-486]
≥ 10000,≥ 1000,≥ 1000,C[C@]1(c2ccccc2)C[C@@]1(NS(=O)(=O)c1ccc(-c2ccc3nnn(O)c3c2)s1)C(=O)O [Example 2-487]
≥ 10000,≥ 1000,≥ 1000,CN(C)c1cc(-c2ccc(S(=O)(=O)N[C@@]3(C(=O)O)C[C@]3(C)c3ccccc3)s2)ccc1Cl [Example 2-488]
≥ 10000,≥ 1000,< 100,O=C(O)C1(NS(=O)(=O)c2cn3cc(-c4ccccc4)nc3s2)CC1c1ccccc1 (stereo not drawn) [Example 2-489]
≥ 10000,≥ 1000,< 100,O=C(O)C1(NS(=O)(=O)c2cn3cc(-c4ccc(Cl)cc4)nc3s2)CC1c1ccccc1 (stereo not drawn) [Example 2-490]
≥ 10000,≥ 1000,< 100,O=C(O)C1(NS(=O)(=O)c2cn3cc(-c4ccc(F)cc4)nc3s2)CC1c1ccccc1 (stereo not drawn) [Example 2-491]
< 100,< 100,< 100,COc1cnn(-c2ccc(S(=O)(=O)N[C@@]3(C(=O)O)C(C)[C@@H]3c3ccccc3)s2)c1 (stereo partly drawn) [Example 2-492]
< 1000,< 100,< 100,CC1[C@H](c2ccccc2)[C@]1(NS(=O)(=O)c1ccc(-c2cc3ccccc3[nH]2)s1)C(=O)O (stereo partly drawn) [Example 2-493]
< 100,< 100,< 100,CC1[C@H](c2ccccc2)[C@]1(NS(=O)(=O)c1ccc(-n2cc(Br)cn2)s1)C(=O)O (stereo partly drawn) [Example 2-494]
< 100,< 100,< 100,O=C(NO)C1(NS(=O)(=O)c2ccc(-c3cc(C(F)(F)F)on3)s2)C2Cc3ccccc3C21 (stereo not drawn) [Example 2-495]
< 1000,< 100,< 100,CC1[C@H](c2ccccc2)[C@]1(NS(=O)(=O)c1ccc(-c2ccc(Cl)c(N)c2)s1)C(=O)O (stereo partly drawn) [Example 2-496]
≥ 1000,< 100,< 100,CC1[C@H](c2ccccc2)[C@]1(NS(=O)(=O)c1ccc(-c2ccc3nsnc3c2)s1)C(=O)O (stereo partly drawn) [Example 2-497]
≥ 1000,< 100,< 1000,C[C@]1(c2ccccc2)C[C@@]1(NS(=O)(=O)c1ccc(-n2cc(Cl)cn2)s1)C(=O)O [Example 2-498]
< 1000,< 1000,< 100,CC1[C@H](c2ccccc2)[C@]1(NS(=O)(=O)c1cn2cc(-c3ccccc3)nc2s1)C(=O)O (stereo partly drawn) [Example 2-499]
≥ 1000,≥ 1000,< 1000,CC1[C@H](c2ccccc2)[C@]1(NS(=O)(=O)N1CCC(Oc2ccc(Cl)cc2)C1)C(=O)O (stereo partly drawn) [Example 2-500]
≥ 1000,≥ 1000,≥ 1000,CC1[C@H](c2ccccc2)[C@]1(NS(=O)(=O)N1CCC(Oc2cccc(Cl)c2)C1)C(=O)O (stereo partly drawn) [Example 2-501]
≥ 1000,≥ 1000,≥ 1000,CC1[C@H](c2ccccc2)[C@]1(NS(=O)(=O)N1CCN(c2ccc(Cl)cc2)C(=O)C1)C(=O)O (stereo partly drawn) [Example 2-502]
≥ 1000,< 1000,< 1000,CC1[C@H](c2ccccc2)[C@]1(NS(=O)(=O)N1CCN(c2ccc(Cl)nn2)CC1)C(=O)O (stereo partly drawn) [Example 2-503]
